pKi: −log10 of the molar value.
Key:
[1] = test system: CD-1 mice; experiment: Formalin test; format: in vivo, mouse
Procedure: One of the most clinically predictive screening models of acute pain is the formalin test in mice (LeBars et al., 2001). In this paradigm, originally described by Dubuisson and Dennis (1977), a diluted solution of formalin is injected into the plantar surface of a subject's (rat or mouse) rear paw and nociceptive behavior is measured; for instance, licking and biting of the injected paw. Two phases of the response are observed. First an early phase, starting immediately after injection and lasting 5-10 minutes, followed by a late phase that can last from 15-60 minutes after injection. Nociceptive response is attributed to direct chemical stimulation in the early phase and inflammation/persistent pain in the later phase (Dubuisson and Dennis, 1977). The response in the late phase also depends on changes in processing of information in the spinal cord due to the afferent barrage during the early phase (Coderre et al., 1990). An advantage of the test is that two different types of stimuli are employed in the same assay to study the possibility of varying analgesic effects of a drug in the two phases of the test (Tjølsen and Hole, 1997).
Subjects (adult male CD-1 mice (Charles River, Raleigh, N.C.) weighing approximately 20-25 grams) were removed from their home cage and weighed, then placed in a clear Plexiglas™ observation box for an acclimation period of 20-30 minutes. Mice were then removed from the observation chambers and (2S,3R)—N-2-((3-pyridinyl)methyl)-1-azabicyclo[2.2.2]oct-3-yl)-3,5-difluorobenzamide (as the hydrochloride salt in 0.9% saline) (1, 3 or 10 mg/kg s.c. (calculated with respect to the free base)), morphine (5 mg/kg; s.c.) or 0.9% saline vehicle was administered subcutaneously in a volume of 1 mL/kg. Mice were then returned to the chamber for the predetermined pretreatment time of 30 minutes for (2S,3R)—N-2-((3-pyridinyl)methyl)-1-azabicyclo[2.2.2]oct-3-yl)-3,5-difluorobenzamide and morphine.
After the test compound pretreatment time, the animals were injected with formalin solution (2.5% derived as a 1:4 dilution of 10% phosphate buffered formalin solution (Sigma):distilled water). The subject's assigned paw was gasped gently and formalin solution was injected into the paw intra-dermally in the middle on the dorsal side. Once injected, the subject was immediately returned to its observation chamber and a timer was started to mark the beginning of Phase I. Each subject was videotaped for the entire 40-minute session. […] The time spent licking during that 1 min interval was recorded, and the presence or absence of paw favoring was noted.
For data analyses, phase I of the test was defined as 0 to 5 minutes after formalin injection, and phase II was defined as 20 to 40 minutes after formalin injection. The time spent licking during the 1 minute intervals during those time frames was recorded and graphed as mean±S.E.M. For comparisons across treatment groups, 1-way analyses of variance (ANOVAs) were performed for each phase of the session with treatment as the […] variable. Post-hoc analyses were performed when appropriate to determine specific group differences.

[2] = target: T1, human native muscle-type nicotinic receptors (likely α1β1γδ) (Homo sapiens, UniProt P02708+P07510+Q07001); experiment: [3H]epibatidine binding, TE-671 membranes
T1 construct: human native muscle-type nicotinic receptors (likely α1β1γδ); endogenous in cells; host or cells: TE-671
T1 sequence (P07510 23-517): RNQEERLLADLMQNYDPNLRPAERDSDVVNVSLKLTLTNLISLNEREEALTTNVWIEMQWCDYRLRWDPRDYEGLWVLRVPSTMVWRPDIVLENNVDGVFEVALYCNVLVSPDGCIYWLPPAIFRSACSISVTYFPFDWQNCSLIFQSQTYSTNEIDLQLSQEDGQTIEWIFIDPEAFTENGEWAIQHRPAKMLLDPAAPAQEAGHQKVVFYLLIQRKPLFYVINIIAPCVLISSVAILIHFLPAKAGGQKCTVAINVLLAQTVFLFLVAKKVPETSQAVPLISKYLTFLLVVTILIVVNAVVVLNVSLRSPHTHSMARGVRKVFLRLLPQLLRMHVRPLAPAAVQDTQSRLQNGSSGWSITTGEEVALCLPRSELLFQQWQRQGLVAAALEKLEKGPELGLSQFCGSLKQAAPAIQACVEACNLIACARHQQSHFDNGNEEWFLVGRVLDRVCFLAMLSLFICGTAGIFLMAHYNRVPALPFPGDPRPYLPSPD
T1 sequence (P11230 24-501, further chain): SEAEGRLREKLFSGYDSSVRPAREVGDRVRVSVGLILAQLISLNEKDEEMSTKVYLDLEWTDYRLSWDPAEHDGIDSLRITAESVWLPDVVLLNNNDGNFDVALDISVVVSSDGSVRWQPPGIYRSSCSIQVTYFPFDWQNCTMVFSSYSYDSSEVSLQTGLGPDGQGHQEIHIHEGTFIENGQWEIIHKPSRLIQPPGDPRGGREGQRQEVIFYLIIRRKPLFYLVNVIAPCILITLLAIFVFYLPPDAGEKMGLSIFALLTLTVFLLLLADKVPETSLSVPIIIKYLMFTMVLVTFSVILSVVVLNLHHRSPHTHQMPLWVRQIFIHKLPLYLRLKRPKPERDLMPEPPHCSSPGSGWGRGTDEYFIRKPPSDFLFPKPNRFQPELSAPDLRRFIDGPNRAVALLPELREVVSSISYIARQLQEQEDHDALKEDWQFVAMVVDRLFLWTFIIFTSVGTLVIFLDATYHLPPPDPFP
T1 sequence (P02708 21-457): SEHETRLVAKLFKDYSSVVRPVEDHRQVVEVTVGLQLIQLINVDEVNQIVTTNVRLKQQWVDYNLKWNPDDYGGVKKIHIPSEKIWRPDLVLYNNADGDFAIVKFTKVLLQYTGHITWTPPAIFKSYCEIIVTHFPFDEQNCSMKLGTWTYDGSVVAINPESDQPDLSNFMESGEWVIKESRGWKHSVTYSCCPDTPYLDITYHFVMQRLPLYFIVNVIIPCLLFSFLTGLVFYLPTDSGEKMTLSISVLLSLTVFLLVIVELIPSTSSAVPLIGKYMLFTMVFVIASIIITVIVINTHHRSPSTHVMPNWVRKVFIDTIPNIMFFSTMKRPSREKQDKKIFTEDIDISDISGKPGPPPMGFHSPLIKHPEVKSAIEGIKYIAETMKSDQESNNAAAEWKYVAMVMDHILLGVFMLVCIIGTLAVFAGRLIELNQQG
T1 sequence (Q07001 22-517): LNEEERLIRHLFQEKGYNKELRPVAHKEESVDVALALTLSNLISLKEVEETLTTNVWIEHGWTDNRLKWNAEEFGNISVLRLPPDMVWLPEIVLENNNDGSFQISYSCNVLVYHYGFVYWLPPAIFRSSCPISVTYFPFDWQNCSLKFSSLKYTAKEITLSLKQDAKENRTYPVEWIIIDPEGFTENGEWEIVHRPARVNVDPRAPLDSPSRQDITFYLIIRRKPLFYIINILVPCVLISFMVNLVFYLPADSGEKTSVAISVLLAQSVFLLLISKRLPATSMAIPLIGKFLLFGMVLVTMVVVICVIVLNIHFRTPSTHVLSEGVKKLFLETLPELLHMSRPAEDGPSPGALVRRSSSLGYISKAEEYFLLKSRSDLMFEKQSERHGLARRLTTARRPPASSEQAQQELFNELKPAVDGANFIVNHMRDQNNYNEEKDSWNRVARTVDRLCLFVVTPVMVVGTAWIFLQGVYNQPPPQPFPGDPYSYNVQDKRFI

[3] = test system: STZ rat model of diabetic neuropathy; experiment: Streptozotocin (STZ)-induced diabetic neuropathy, Von Frey allodynia; format: in vivo; conditions: for allodynia (Von Frey): 30 minutes after administration
Text: Peripheral neuropathy, a major complication of diabetes, often results in spontaneous pain or the perception of pain from contact with a normally non-noxious stimulus. Such neuropathic pain is experienced by 20-24% of diabetic patients, or approximately 30 million people worldwide (Schmader, 2002). The streptozotocin (STZ)-induced diabetes model in rats provides a means to evaluate the efficacy of test compounds that offer therapeutic potential for peripheral neuropathy and to understand their putative mechanism of action. In this model, a single injection of STZ, an antibiotic that mimics clinical diabetes by causing irreversible damage to the pancreatic β and α-cells leads to chronic hyperglycemia, nerve dysfunction and pain sensitivity. The current study utilizes the STZ rat model of diabetic neuropathy to investigate the effects of (2S,3R)—N-2-((3-pyridinyl)methyl)-1-azabicyclo[2.2.2]oct-3-yl)-3,5-difluorobenzamide on mechanical allodynia, an assessment of pain.
Diabetes was induced by a 0.5 ml injection of streptozotocin (60 mg/kg) dissolved in citrate buffer (pH) into the tail vein of each rat The development of diabetes was confirmed by measuring the blood glucose levels (BGL) of all animals on study day 3 (BGL>300 mg/dL). […] These animals were tested again for their BGL at study day 23.
(2S,3R)—N-2-((3-pyridinyl)methyl)-1-azabicyclo[2.2.2]oct-3-yl)-3,5-difluorobenzamide (0.1, 1 or 10 mg/kg p.o.) was administered as a solution of the hydrochloride salt in water once daily starting on study day 14 or study day 16 and continuing through study day 21 or 23, respectively. The control article gabapentin (in 0.9% saline, 150 mg/kg i.p.) was only administered on allodynia test days. Test item, vehicle or control article administration was based on evaluation of allodynia on study day 14. If allodynia was not present on study day 14, the animal was evaluated again at study day 16. Pain response was measured either on study days 14 and 21 or 16 and 23, 30 minutes after Test Item administration.
For the allodynia assessments, Von Frey filaments were used according to the methods of Chaplan and colleagues (1994). Briefly, the rats were placed in an enclosure and positioned on a metal mesh surface, but allowed to move freely. The rats' cabins were covered with red cellophane to diminish environmental distributions. The test began after cessation of exploratory behavior.
When the tip of a Von Frey fiber of given length and diameter was pressed against the skin at right angles, the force of application increases as long as the researcher continued to advance the probe until the fiber bent. After the fiber bent, the probe was advanced, causing the fiber to bend more, but without additional force being applied. The animal would indicate sensation by pulling back its paw. In the absence of a paw withdrawal response to the initially selected filament, a stronger stimulus was presented; in the event of paw withdrawal, the next weaker stimulus was chosen. In this fashion, the resulting pattern of positive and negative responses was used to determine the paw withdrawal threshold.
The set of Von Frey monofilaments provide an approximate logarithmic scale of actual force and a linear scale of perceived intensity. Below is a table showing the force (g) and its corresponding size of monofilaments.
All normally distributed data are presented as means±SEM, as well as the animals' individual values followed by a student T-test (Software: Microsoft® Excel). A p value <0.05 is considered to represent a significant difference. Due to the non-normal distribution of the allodynia data, descriptions of those data are provided as both mean (±SEM) and median values in order to represent their imprecise nature and skewed distribution.

For `O=C(N[C@@H]1C2CCN(CC2)[C@H]1Cc1cccnc1)c1cc(F)cc(F)c1` [Compound A], the “reduction of time spent licking the paw, phase II” value ([1]; 10 mg/kg s.c., 20 to 40 minutes after formalin, P<0.05) was “significant in reducing the time spent licking the paw”, the “reduction of time spent licking, phase I” value ([1]; 1, 3 or 10 mg/kg s.c., hydrochloride salt, 0 to 5 minutes after formalin) was “no statistically significant dose” and the “reduction of time spent licking the affected paw, phase I or phase II” value ([1]; subsequent analysis of the videotapes, scored across the entire time period) was “failed to achieve statistical significance”. The pKi [2] was 3.87, the “allodynia (Von Frey)” value ([3]; 1 mg/kg p.o., study days 14/16, p<0.01 vs pretreatment, p<0.05 vs Vehicle) was “inhibited allodynia” and the “allodynia (Von Frey)” value ([3]; 1 mg/kg p.o., study days 21/23, p=0.012 vs pretreatment) was “inhibited allodynia”. For the same molecule, the “allodynia (Von Frey)” value ([3]; 10 mg/kg p.o., study days 14/16, p=0.012 vs pretreatment) was “inhibited allodynia”, the “allodynia (Von Frey)” value ([3]; 10 mg/kg p.o., study days 21/23, p<0.05 vs Vehicle) was “inhibited allodynia” and the “diabetic neuropathy pain, Von Frey assessment” value ([3]; doses of 1 mg/kg and 10 mg/kg compared to Vehicle, FIG. 14) was “effective in reducing diabetic neuropathy pain”.
